Laboratory results: US12202835B2, “Substituted aromatic ring-linked dioxinoquinazolines and dioxinoquinolines as kinase inhibitors” (BEIJING SCITECH-MQ PHARMACEUTICALS LIMITED, priority 2018, dated 2025)

Experiments:
Type in all cases: biochemical
[1] = molecular target: TRKA kinase (Homo sapiens (Human), UniProt P04629); assay: Assay of small molecular compounds for inhibiting the activity of TRKA kinase (LANCE TR-FRET)
Procedure: The assay of small molecular compounds for inhibiting the activity of TRKA kinase is based on the LANCE TR-FRET technology of Perkin Elmer Inc., and the assay method is as follows: • 1. […] 2.5 μL of the gradient-diluted compounds were taken with a transfer pipette to a 384-well plate. • 3. Addition of enzyme: 5 μL of 2×TRKA kinase solution (with a concentration of 2 nM) was taken with a transfer pipette to the corresponding reaction well of the 384-well plate, mixed well and pre-reacted at room temperature for 5 minutes. • 4. 2.5 μL 4× Ultra ULight-labeled TK Peptide (with a concentration of 400 nM)/ATP (with a concentration of 40 μM) mixture was taken with a transfer pipette to the corresponding reaction well of the 384-well plate. • 5. Negative control: 2.5 μL/well 4× substrate/ATP mixture and 7.5 μL 1× Kinase Assay Buffer were added to the wells of the 384-well plate.
(§1) Positive control: 2.5 μL/well 4× substrate/ATP mixture, 2.5 μL/well 1× Kinase Assay Buffer containing 4% DMSO, and 5 μL/well 2×TRKA kinase solution were added to the 384-well plate. The final concentration of DMSO in the reaction system was 1%. • 6. The mixture was mixed well and then centrifuged and reacted at room temperature in dark for 60 min. • 7. Termination of the enzymatic reaction: 5 μL of 4× stop solution was taken with a transfer pipette to the wells of the 384-well plate, mixed and then centrifuged, and reacted at room temperature for 5 min. • 8. Development of the reaction: 5 μL of 4× detection solution was taken with a transfer pipette to the wells of the 384-well plate for color development, and the mixture was mixed and then centrifuged and reacted at room temperature for 60 min. • 9. The 384-well plate was placed into the Envision plate reader and the signal was detected using the appropriate program.

[2] = molecular target: c-MET kinase (Homo sapiens (Human), UniProt P08581); assay: Assay of small molecular compounds for inhibiting the activity of c-MET kinase (LANCE TR-FRET); settings: read-out: CMET IC50
c-MET kinase, sequence (P08581 25-1390): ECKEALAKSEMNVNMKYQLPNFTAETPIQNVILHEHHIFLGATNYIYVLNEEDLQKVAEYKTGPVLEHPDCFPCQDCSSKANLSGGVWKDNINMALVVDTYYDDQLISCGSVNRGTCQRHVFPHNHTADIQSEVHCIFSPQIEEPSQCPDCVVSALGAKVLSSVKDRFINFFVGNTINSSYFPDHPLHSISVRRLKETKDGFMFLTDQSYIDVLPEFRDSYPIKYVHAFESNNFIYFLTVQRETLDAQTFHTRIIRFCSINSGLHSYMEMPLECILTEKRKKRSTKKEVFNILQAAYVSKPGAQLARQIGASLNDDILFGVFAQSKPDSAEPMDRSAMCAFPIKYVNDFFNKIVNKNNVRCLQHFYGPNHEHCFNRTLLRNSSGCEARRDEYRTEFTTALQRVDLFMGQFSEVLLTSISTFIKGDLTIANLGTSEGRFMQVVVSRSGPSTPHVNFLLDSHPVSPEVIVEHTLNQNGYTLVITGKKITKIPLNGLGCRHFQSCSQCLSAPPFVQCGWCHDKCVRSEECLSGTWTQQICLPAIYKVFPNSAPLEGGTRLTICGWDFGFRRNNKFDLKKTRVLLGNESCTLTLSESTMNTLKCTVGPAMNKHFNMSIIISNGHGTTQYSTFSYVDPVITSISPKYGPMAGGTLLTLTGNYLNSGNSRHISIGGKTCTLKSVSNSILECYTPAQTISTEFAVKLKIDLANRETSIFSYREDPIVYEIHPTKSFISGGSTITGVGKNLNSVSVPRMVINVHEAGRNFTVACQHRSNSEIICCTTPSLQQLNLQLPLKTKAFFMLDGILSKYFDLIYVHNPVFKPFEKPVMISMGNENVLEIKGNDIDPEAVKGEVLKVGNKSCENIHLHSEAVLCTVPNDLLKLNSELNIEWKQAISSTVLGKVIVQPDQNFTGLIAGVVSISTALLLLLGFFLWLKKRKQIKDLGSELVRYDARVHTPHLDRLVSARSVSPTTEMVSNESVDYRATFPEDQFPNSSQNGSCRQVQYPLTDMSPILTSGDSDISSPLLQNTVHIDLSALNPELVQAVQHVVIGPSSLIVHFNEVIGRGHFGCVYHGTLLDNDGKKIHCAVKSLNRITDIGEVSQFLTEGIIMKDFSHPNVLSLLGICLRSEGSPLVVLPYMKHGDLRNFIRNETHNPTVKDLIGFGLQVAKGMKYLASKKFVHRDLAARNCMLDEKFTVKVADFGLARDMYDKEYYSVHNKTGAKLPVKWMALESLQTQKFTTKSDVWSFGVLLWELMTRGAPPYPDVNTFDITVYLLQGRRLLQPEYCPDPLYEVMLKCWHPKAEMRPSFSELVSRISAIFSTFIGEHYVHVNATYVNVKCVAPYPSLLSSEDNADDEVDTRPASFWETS
Procedure: The assay is based on the LANCE TR-FRET technology of Perkin Elmer Inc., and the assay method is as follows: • 1. Dilution of compounds: a total of 11 concentrations were obtained using a 3-fold gradient dilution from the highest concentration of 2500 nM (the maximum final concentration of the drug used in this assay was 2500 nM, and the minimum final concentration was 0.042 nM). • 2. 2.5 μL of the gradient-diluted compounds were taken with a transfer pipette to a 384-well plate. • 3. Addition of enzyme: 5 μL of 2×c-MET kinase solution (with a concentration of 2 nM) was taken with a transfer pipette to the corresponding reaction well of the 384-well plate, mixed well and pre-reacted at room temperature for 5 minutes. • 4. 2.5 μL 4× Ultra ULight™-JAK-1 (Tyr1023) Peptide (with a concentration of 400 nM)/ATP (with a concentration of 40 μM) mixture was taken with a transfer pipette to the corresponding reaction well of the 384-well plate. • 5. Negative control: 2.5 μL/well 4× substrate/ATP mixture and 7.5 μL 1× Kinase Assay Buffer were added to the wells of the 384-well plate. • 6. Positive control: 2.5 μL/well 4× substrate/ATP mixture, 2.5 μL/well 1× Kinase Assay Buffer containing 16% DMSO, and 5 μL/well 2× c-MET kinase solution were added to the 384-well plate. The final concentration of DMSO in the reaction system was 4%. • 7. The mixture was mixed well and then centrifuged and reacted at room temperature in dark for 60 min. • 8. Termination of the enzymatic reaction: 5 μL of 4× stop solution was taken with a transfer pipette to the wells of the 384-well plate, mixed and then centrifuged, and reacted at room temperature for 5 min. • 9. Development of the reaction: 5 μL of 4× detection solution was taken with a transfer pipette to the wells of the 384-well plate for color development, and the mixture was mixed and then centrifuged and reacted at room temperature for 60 min. • 10. The 384-well plate was placed into the Envision plate reader and the signal was detected using the appropriate program. • 11. Analysis and processing of the raw data: • 12. The drug concentrations and the corresponding inhibition rates were input into GraphPad Prism5 for calculation, and the inhibition rate of the compounds were calculated as follows: inhibition rate (%)=(reading of positive well−reading of experimental well)/(reading of positive control well−reading of negative control well)×100%. Processing with GraphPad Prism5 software yielded the corresponding IC50 values (the concentration of the compound at which 50% of the highest inhibition of the enzyme is achieved).

[3] = molecular target: MER kinase (Homo sapiens (Human), UniProt Q12866); assay: Assay of small molecular compounds for inhibiting the activity of MER kinase (LANCE TR-FRET)
MER kinase, sequence (Q12866 21-999): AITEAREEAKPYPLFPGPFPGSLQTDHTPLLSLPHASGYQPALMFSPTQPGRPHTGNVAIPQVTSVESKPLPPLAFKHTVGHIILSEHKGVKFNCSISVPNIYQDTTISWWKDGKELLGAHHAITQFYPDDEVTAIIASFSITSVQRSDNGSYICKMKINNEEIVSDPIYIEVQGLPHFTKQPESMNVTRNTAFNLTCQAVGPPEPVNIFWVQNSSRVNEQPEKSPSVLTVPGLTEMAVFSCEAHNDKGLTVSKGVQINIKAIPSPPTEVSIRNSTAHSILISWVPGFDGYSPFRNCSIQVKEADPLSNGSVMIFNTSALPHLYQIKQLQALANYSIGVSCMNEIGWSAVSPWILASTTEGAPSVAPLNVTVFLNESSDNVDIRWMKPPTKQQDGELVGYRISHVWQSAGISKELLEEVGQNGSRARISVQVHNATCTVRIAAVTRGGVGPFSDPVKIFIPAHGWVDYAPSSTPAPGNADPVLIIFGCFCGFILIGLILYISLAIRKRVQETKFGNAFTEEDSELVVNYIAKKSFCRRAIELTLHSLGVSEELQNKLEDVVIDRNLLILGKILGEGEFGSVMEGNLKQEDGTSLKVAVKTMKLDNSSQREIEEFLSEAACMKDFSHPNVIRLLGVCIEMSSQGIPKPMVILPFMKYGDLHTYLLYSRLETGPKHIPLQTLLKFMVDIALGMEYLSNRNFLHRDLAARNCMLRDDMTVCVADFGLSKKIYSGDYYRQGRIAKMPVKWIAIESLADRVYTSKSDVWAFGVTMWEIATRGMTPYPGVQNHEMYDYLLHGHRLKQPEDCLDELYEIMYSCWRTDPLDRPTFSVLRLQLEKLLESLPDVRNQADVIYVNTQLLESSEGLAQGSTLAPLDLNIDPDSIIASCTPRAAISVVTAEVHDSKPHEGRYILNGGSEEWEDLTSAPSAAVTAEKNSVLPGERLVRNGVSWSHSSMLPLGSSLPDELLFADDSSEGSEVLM
Procedure: The assay of small molecular compounds for inhibiting the activity of MER kinase is based on the LANCE TR-FRET technology of Perkin Elmer Inc., and the assay method is as follows: • 1. Dilution of compounds: a total of 11 concentrations were obtained using a 3-fold gradient dilution from the highest concentration of 2500 nM (the maximum final concentration of the drug used in this assay was 2500 nM, and the minimum final concentration was 0.042 nM). • 2. 2.5 μL of the gradient-diluted compounds were taken with a transfer pipette to a 384-well plate. • 3. Addition of enzyme: 5 μL of 2×MER kinase solution (with a concentration of 1 nM) was taken with a transfer pipette to the corresponding reaction well of the 384-well plate, mixed well and pre-reacted at room temperature for 5 minutes. • 4. 2.5 μL 4× ULight-labeled Ploy GT (with a concentration of 200 nM)/ATP (with a concentration of 20 μM) mixture was taken with a transfer pipette to the corresponding reaction well of the 384-well plate. • 5. Negative control: 2.5 μL/well 4× substrate/ATP mixture and 7.5 μL 1× Kinase Assay Buffer were added to the wells of the 384-well plate.
as §1, with “2×MER” for “2×TRKA”, “program. • 10. Analysis and processing of the raw data:” for “program.”
The drug concentrations and the corresponding inhibition rates were input into GraphPad Prism5 for calculation, and the inhibition rate of the compounds were calculated as follows: inhibition rate (%)=(reading of positive well−reading of experimental well)/(reading of positive control well−reading of negative control well)×100%. Processing with GraphPad Prism5 software yielded the corresponding IC50 values (the concentration of the compound at which 50% of the highest inhibition of the enzyme is achieved).

TRKA kinase, sequence (P04629 33-796): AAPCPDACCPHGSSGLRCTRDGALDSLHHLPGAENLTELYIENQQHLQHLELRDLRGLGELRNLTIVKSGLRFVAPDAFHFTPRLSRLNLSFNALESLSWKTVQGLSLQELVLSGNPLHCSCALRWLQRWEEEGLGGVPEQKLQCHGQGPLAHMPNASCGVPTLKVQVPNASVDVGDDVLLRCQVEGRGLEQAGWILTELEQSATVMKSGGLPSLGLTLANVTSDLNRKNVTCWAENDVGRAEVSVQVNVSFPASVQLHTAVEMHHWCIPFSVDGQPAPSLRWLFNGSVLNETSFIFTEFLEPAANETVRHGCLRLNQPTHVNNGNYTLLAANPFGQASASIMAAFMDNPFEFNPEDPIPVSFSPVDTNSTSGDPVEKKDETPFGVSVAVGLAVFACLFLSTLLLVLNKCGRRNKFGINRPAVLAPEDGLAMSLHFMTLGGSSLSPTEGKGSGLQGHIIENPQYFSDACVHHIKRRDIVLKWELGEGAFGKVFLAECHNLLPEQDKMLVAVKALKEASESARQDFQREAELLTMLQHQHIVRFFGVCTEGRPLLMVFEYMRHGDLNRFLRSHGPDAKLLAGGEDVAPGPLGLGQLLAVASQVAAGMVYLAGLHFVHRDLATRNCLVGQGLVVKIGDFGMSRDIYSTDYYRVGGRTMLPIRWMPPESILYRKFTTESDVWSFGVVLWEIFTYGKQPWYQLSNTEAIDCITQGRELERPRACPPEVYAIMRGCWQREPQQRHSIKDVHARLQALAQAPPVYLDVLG

IC50 [1] | IC50 [2] | IC50 [3] | SMILES
50 to 500 nM | – | – | CCn1cc(C(=O)Nc2ccc(Oc3ccnc4ccc5c(c34)OCCO5)cc2F)c(=O)n(-c2ccc(F)cc2)c1=O [Example 163, N-(4-((2,3-dihydro-[1,4]dioxino[2,3-f]quinolin-10-yl)oxy)-2-fluorophenyl)-3-(4-fluorophenyl)-1-ethyl-2,4-dioxo-1,2,3,4-tetrahydropyrimidine-5-carboxamide]
50 to 500 nM | 50 to 500 nM | – | COc1ccn(-c2ccc(F)cc2)c(=O)c1C(=O)Nc1ccc(Oc2ccnc3ccc4c(c23)OCCO4)cc1 [Example 166, N-(4-((2,3-dihydro-[1,4]dioxino[2,3-f]quinolin-10-yl)oxy)phenyl)-4-methoxy-1-(4-fluorophenyl)-2-oxo-1,2-dihydropyridine-3-carboxamide]
500 to 5000 nM | – | 50 to 500 nM | COc1cc2nccc(Oc3ccc(NC(=O)c4cn(C(C)C)c(=O)n(C5CCCCC5)c4=O)cc3F)c2c2c1OCCO2 [Example 157, N-(3-fluoro-4-((5-methoxy-2,3-dihydro-[1,4]dioxino[2,3-f]quinolin-10-yl)oxy)phenyl)-3-cyclohexyl-1-isopropyl-2,4-dioxo-1,2,3,4-tetrahydropyrimidine-5-carboxamide]
50 to 500 nM | – | – | CCn1cc(C(=O)Nc2cc(F)c(Oc3ccnc4ccc5c(c34)OCCO5)cc2C)c(=O)n(-c2ccc(F)cc2)c1=O [Example 176, N-(4-((2,3-dihydro-[1,4]dioxino[2,3-f]quinolin-10-yl)oxy)-5-fluoro-2-methylphenyl)-3-(4-fluorophenyl)-1-ethyl-2,4-dioxo-1,2,3,4-tetrahydropyrimidine-5-carboxamide]
50 to 500 nM | – | – | CCn1cc(C(=O)Nc2ccc(Oc3ccnc4ccc5c(c34)OCCO5)c(F)c2)c(=O)n(-c2ccc(F)cc2)c1=O [Example 161, N-(4-((2,3-dihydro-[1,4]dioxino[2,3-f]quinolin-10-yl)oxy)-3-fluorophenyl)-3-(4-fluorophenyl)-1-ethyl-2,4-dioxo-1,2,3,4-tetrahydropyrimidine-5-carboxamide]

Continued, compound first:

SMILES | IC50 [1] | IC50 [2] | IC50 [3]
O=C(Nc1ccc(Oc2ccnc3ccc4c(c23)OCCO4)cc1)c1cccn(-c2ccc(F)cc2)c1=O [Example 165, N-(4-((2,3-dihydro-[1,4]dioxino[2,3-f]quinolin-10-yl)oxy)phenyl)-1-(4-fluorophenyl)-2-oxo-1,2-dihydropyridine-3-carboxamide] | 50 to 500 nM | ≤ 50 nM | –
Cn1cc(C(=O)Nc2ccc(Oc3ccnc4ccc5c(c34)OCCO5)c(F)c2)c(=O)n(-c2ccc(F)cc2)c1=O [Example 160, N-(4-((2,3-dihydro-[1,4]dioxino[2,3-f]quinolin-10-yl)oxy)-3-fluorophenyl)-3-(4-fluorophenyl)-1-methyl-2,4-dioxo-1,2,3,4-tetrahydropyrimidine-5-carboxamide] | 50 to 500 nM | – | –
Cn1cc(C(=O)Nc2cc(F)c(Oc3ccnc4ccc5c(c34)OCCO5)cc2Cl)c(=O)n(-c2ccc(F)cc2)c1=O [Example 173, N-(2-chloro-4-((2,3-dihydro-[1,4]dioxino[2,3-f]quinolin-10-yl)oxy)-5-fluorophenyl)-3-(4-fluorophenyl)-1-methyl-2,4-dioxo-1,2,3,4-tetrahydropyrimidine-5-carboxamide] | 50 to 500 nM | – | –
COc1cc2ncnc(Oc3ccc(NC(=O)c4ccn(-c5ccc(F)cc5C)n4)cc3F)c2c2c1OCCO2 [Example 7, 1-(4-fluoro-2-methylphenyl)-N-(3-fluoro-4-((5-methoxy-2,3-dihydro-[1,4]dioxino[2,3-f]quinazolin-10-yl)oxy)phenyl)-1H-pyrazole-3-carboxamide] | – | 50 to 500 nM | 500 to 5000 nM
CCn1cc(C(=O)Nc2cc(F)c(Oc3ccnc4ccc5c(c34)OCCO5)cc2Cl)c(=O)n(-c2ccc(F)cc2)c1=O [Example 174, N-(2-chloro-4-((2,3-dihydro-[1,4]dioxino[2,3-f]quinolin-10-yl)oxy)-5-fluorophenyl)-3-(4-fluorophenyl)-1-ethyl-2,4-dioxo-1,2,3,4-tetrahydropyrimidine-5-carboxamide] | < 50 nM | – | –
Cc1cc(F)ccc1-n1ccc(C(=O)Nc2ccc(Oc3ncnc4cc(OCCCN5CCOCC5)c5c(c34)OCCO5)c(F)c2)n1 [Example 10, 1-(4-fluoro-2-methylphenyl)-N-(3-fluoro-4-((5-(3-morpholinopropoxy)-2,3-dihydro-[1,4]dioxino[2,3-f]quinazolin-10-yl)oxy)phenyl)-1H-pyrazole-3-carboxamide] | – | ≤ 50 nM | 50 to 500 nM
COc1ccn(-c2ccc(F)cc2)c(=O)c1C(=O)Nc1ccc(Oc2ccnc3ccc4c(c23)OCCO4)c(F)c1 [Example 167, N-(4-((2,3-dihydro-[1,4]dioxino[2,3-f]quinolin-10-yl)oxy)-3-fluorophenyl)-1-(4-fluorophenyl)-4-methoxy-2-oxo-1,2-dihydropyridine-3-carboxamide] | 50 to 500 nM | ≤ 50 nM | –
CCOc1ccn(-c2ccc(F)cc2)c(=O)c1C(=O)Nc1ccc(Oc2ccnc3ccc4c(c23)OCCO4)cc1 [Example 164, N-(4-((2,3-dihydro-[1,4]dioxino[2,3-f]quinolin-10-yl)oxy)phenyl)-4-ethoxy-1-(4-fluorophenyl)-2-oxo-1,2-dihydropyridine-3-carboxamide] | 50 to 500 nM | ≤ 50 nM | –
CCOc1ccn(-c2ccc(F)cc2)c(=O)c1C(=O)Nc1ccc(Oc2ccnc3ccc4c(c23)OCCO4)c(F)c1 [Example 168, N-(4-((2,3-dihydro-[1,4]dioxino[2,3-f]quinolin-10-yl)oxy)-3-fluorophenyl)-1-(4-fluorophenyl)-4-ethoxy-2-oxo-1,2-dihydropyridine-3-carboxamide] | 50 to 500 nM | – | –
